This is an account of results in ChEMBL document CHEMBL1649312, “Absence of association between piperaquine in vitro responses and polymorphisms in the pfcrt, pfmdr1, pfmrp, and pfnhe genes in Plasmodium falciparum” (Antimicrob Agents Chemother, 2010).

Structures are written as SMILES.

Holding throughout (format): functional, organism-based
Assay [1] relates to Plasmodium falciparum. Put plainly: Antimalarial activity against Plasmodium falciparum IMT 8425 assessed as inhibition of [3H] incorporation after 48 hrs by scintillation counter.
Assay [2] deals with Plasmodium falciparum. The experiment in a line: Antimalarial activity against Plasmodium falciparum IMT A4 assessed as inhibition of [3H] incorporation after 48 hrs by scintillation counter.
For assay [3], the system named is Plasmodium falciparum. The experiment in a line: Antimalarial activity against Plasmodium falciparum IMT 9881 assessed as inhibition of [3H] incorporation after 48 hrs by scintillation counter.
Assay [4] has as its system Plasmodium falciparum. Put plainly: Antimalarial activity against Plasmodium falciparum IMT K4 assessed as inhibition of [3H] incorporation after 48 hrs by scintillation counter.
The test system of assay [5] is Plasmodium falciparum. The experiment in a line: Antimalarial activity against Plasmodium falciparum FCM29 assessed as inhibition of [3H] incorporation after 48 hrs by scintillation counter.
Assay [6] relates to Plasmodium falciparum. The experiment in a line: Antimalarial activity against Plasmodium falciparum IMT 16332 assessed as inhibition of [3H] incorporation after 48 hrs by scintillation counter.
For assay [7], the system named is Plasmodium falciparum. Put plainly: Antimalarial activity against Plasmodium falciparum IMT Vol assessed as inhibition of [3H] incorporation after 48 hrs by scintillation counter.
Assay [8] has as its system Plasmodium falciparum. The experiment in a line: Antimalarial activity against Plasmodium falciparum IMT 10354 assessed as inhibition of [3H] incorporation after 48 hrs by scintillation counter.
Assay [9] deals with Plasmodium falciparum. Put plainly: Antimalarial activity against Plasmodium falciparum IMT K14 assessed as inhibition of [3H] incorporation after 48 hrs by scintillation counter.
The test system of assay [10] is Plasmodium falciparum. The experiment in a line: Antimalarial activity against Plasmodium falciparum 106/1 assessed as inhibition of [3H] incorporation after 48 hrs by scintillation counter.
For assay [11], the system named is Plasmodium falciparum. Put plainly: Antimalarial activity against Plasmodium falciparum IMT Bres assessed as inhibition of [3H] incorporation after 48 hrs by scintillation counter.
In assay [12] the test system is Plasmodium falciparum. Put plainly: Antimalarial activity against Plasmodium falciparum IMT K2 assessed as inhibition of [3H] incorporation after 48 hrs by scintillation counter.
Assay [13] concerns Plasmodium falciparum. The experiment in a line: Antimalarial activity against Plasmodium falciparum 3D7 assessed as inhibition of [3H] incorporation after 48 hrs by scintillation counter.
Assay [14] has as its system Plasmodium falciparum. Put plainly: Antimalarial activity against Plasmodium falciparum D6 assessed as inhibition of [3H] incorporation after 48 hrs by scintillation counter.
The test system of assay [15] is Plasmodium falciparum. The experiment in a line: Antimalarial activity against Plasmodium falciparum IMT Guy assessed as inhibition of [3H] incorporation after 48 hrs by scintillation counter.
Assay [16] deals with Plasmodium falciparum. Put plainly: Antimalarial activity against Plasmodium falciparum IMT 31 assessed as inhibition of [3H] incorporation after 48 hrs by scintillation counter.
In assay [17] the test system is Plasmodium falciparum. Put plainly: Antimalarial activity against Plasmodium falciparum IMT L1 assessed as inhibition of [3H] incorporation after 48 hrs by scintillation counter.
The test system of assay [18] is Plasmodium falciparum. Put plainly: Antimalarial activity against Plasmodium falciparum HB3 assessed as inhibition of [3H] incorporation after 48 hrs by scintillation counter.
Assay [19] has as its system Plasmodium falciparum. The experiment in a line: Antimalarial activity against Plasmodium falciparum PA assessed as inhibition of [3H] incorporation after 48 hrs by scintillation counter.
Assay [20] relates to Plasmodium falciparum. Put plainly: Antimalarial activity against Plasmodium falciparum IMT 10500 assessed as inhibition of [3H] incorporation after 48 hrs by scintillation counter.
Assay [21] has as its system Plasmodium falciparum. Put plainly: Antimalarial activity against Plasmodium falciparum W2 assessed as inhibition of [3H] incorporation after 48 hrs by scintillation counter.

Take `C[C@H]1c2cccc(O)c2C(=O)C2=C(O)[C@]3(O)C(=O)C(C(N)=O)=C(O)[C@@H](N(C)C)[C@@H]3[C@@H](O)[C@@H]21` [DOXYCYCLINE]: the IC50 (in general, the point on the concentration scale where inhibition reaches its midpoint) is 10900 nM in the assay with Plasmodium falciparum [1]; 9.2 µM in the assay on Plasmodium falciparum [2]; 8.7 µM in the assay on Plasmodium falciparum [3]; 10200 nM in the assay with Plasmodium falciparum [4]; 11.6 µM in the assay with Plasmodium falciparum [5]; 13700 nM in the assay on Plasmodium falciparum [6]. Besides, the IC50 was 9.1 µM with Plasmodium falciparum [7], 4600 nM in the assay on Plasmodium falciparum [8] and 11500 nM in the assay on Plasmodium falciparum [9].

With `C=C[C@H]1CN2CC[C@H]1C[C@H]2[C@H](O)c1ccnc2ccc(OC)cc12` [QUININE], the IC50 was 138 nM with Plasmodium falciparum [1]; 135 nM in the assay with Plasmodium falciparum [10]; 604 nM in the assay with Plasmodium falciparum [11]; 953 nM in the assay with Plasmodium falciparum [4]; 607 nM with Plasmodium falciparum [12]; 134 nM with Plasmodium falciparum [13]. Also, the IC50 with Plasmodium falciparum [6] turned out to be 240 nM; with Plasmodium falciparum [14], 48 nM; in the assay on Plasmodium falciparum [8], 118 nM; in the assay on Plasmodium falciparum [15], 322 nM; in the assay with Plasmodium falciparum [16], 272 nM; in the assay on Plasmodium falciparum [9], 969 nM.

As to `CCNCc1cc(Nc2ccnc3cc(Cl)ccc23)ccc1O` [DESETHYL AMODIAQUINE], the IC50 turned out to be 27 nM in the assay on Plasmodium falciparum [1]; 0.123 µM in the assay with Plasmodium falciparum [2]; 32 nM in the assay on Plasmodium falciparum [10]; 0.034 µM with Plasmodium falciparum [3]; 104 nM in the assay on Plasmodium falciparum [11]; 85 nM with Plasmodium falciparum [17]. Also, the concentration for half-maximal inhibition (IC50) came to 113 nM in the assay with Plasmodium falciparum [4]; 0.314 µM with Plasmodium falciparum [5]; 32 nM with Plasmodium falciparum [18]; 26 nM in the assay with Plasmodium falciparum [13]; 52 nM with Plasmodium falciparum [6]; 0.082 µM with Plasmodium falciparum [7]. The IC50 with Plasmodium falciparum [19] amounted to 119 nM; with Plasmodium falciparum [20], 40 nM; with Plasmodium falciparum [14] it was 23 nM; in the assay on Plasmodium falciparum [8] it was 20 nM; in the assay with Plasmodium falciparum [15], 45 nM; in the assay with Plasmodium falciparum [21], 135 nM. In addition, the results for the IC50 in the assay on Plasmodium falciparum [16] and in the assay on Plasmodium falciparum [9] were 29 nM and 166 nM, respectively.
